Data on 15 molecules can be found in patent US20120077814A1, “SULFONAMIDE, SULFAMATE, AND SULFAMOTHIOATE DERIVATIVES” (priority 2010, published 2012).

Experiment [1] concerns HCT-116 cell proliferation. The experiment can be described thus: Cell proliferation assay (HCT-116). It is filed as cell-based. To be noted: Homo sapiens; HCT-116 cells; read-out: Activity (range of inhibitory activity against HCT-116 cell proliferation, IC50). As to the method: A panel of cancer cell lines is obtained from ATCC (Rockville, Md.). Cell cultures are maintained in Hyclone DMEM/F12 medium (Logan, Utah) supplemented with 10% fetal bovine serum and 15 mM HEPES buffer, final pH 7.2, at 37° C. with a 5% CO2 atmosphere. Cultures are maintained at sub-confluent densities.
For proliferation assays, cells are seeded into 96 well plates at 1,000-5,000 cells per well, depending on the cell line, and are incubated overnight. The following day, test compound, DMSO solution (negative control), or Actinomycin D (positive control) is added to the appropriate wells as 10× concentrated stocks prepared in phosphate buffered saline. The cell plates are then incubated for an additional 2-6 days, depending on the cell line, to allow proliferation to occur. To measure cell growth in adherent cultures, DNA amounts are measured in each well using the CyQuant DNA determination kit (Invitrogen, Carlsbad, Calif.) following the recommended protocol. Measurement of cell growth in suspension cultures is done by use of Celltiter Reagent (Promega, Madison, Wis.) at the end of treatment, following the recommended protocol. The percentage of cell growth is determined by comparing the cell growth in the presence of test compounds to the cells treated with DMSO vehicle (control, 100% growth) and cells treated with Actinomycin D ([…], 0% growth). […]

Experiment [2] concerns the target T1, recombinant human NAE enzyme (NEDD8 Activating Enzyme) (Homo sapiens, UniProt Q8TBC4).
T1 sequence (Q8TBC4 1-463): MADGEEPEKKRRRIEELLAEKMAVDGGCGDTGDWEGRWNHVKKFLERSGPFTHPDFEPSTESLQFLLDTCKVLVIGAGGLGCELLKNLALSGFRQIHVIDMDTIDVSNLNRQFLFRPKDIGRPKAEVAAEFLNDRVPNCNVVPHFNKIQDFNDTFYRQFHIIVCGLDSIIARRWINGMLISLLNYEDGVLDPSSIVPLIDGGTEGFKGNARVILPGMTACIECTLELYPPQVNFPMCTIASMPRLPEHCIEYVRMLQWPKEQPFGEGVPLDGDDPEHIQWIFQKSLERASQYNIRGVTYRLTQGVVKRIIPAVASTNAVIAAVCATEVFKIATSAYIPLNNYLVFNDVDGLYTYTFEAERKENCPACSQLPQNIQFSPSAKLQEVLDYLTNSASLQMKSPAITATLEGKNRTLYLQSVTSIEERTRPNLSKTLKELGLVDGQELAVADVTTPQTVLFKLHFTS
T1 sequence (Q13564 1-534 partner): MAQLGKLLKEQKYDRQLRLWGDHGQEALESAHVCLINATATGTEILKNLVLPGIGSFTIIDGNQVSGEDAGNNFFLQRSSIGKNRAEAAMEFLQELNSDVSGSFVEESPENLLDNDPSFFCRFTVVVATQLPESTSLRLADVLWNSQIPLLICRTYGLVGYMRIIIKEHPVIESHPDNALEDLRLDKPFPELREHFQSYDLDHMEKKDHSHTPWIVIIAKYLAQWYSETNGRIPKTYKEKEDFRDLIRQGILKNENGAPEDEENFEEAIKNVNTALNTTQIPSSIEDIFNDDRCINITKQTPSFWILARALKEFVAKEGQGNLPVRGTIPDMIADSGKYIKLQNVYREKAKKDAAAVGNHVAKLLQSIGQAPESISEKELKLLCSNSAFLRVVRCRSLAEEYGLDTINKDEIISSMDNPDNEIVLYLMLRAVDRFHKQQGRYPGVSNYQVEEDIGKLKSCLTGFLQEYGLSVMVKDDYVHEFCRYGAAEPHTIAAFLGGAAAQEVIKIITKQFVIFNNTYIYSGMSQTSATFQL
The experiment is described as follows: E1-activating enzyme assay, time-resolved fluorescence energy transfer (NAE). Type of experiment: biochemical. To be noted: 0.5 nM recombinant human NAE, 100 μM ATP; read-out: Activity (range of inhibitory activity on NAE, IC50). As to the method: A time-resolved fluorescence energy transfer assay format is used to measure the in vitro activity of NEDD8 Activating Enzyme (NAE). The enzymatic reaction is performed in a total volume of 50 μL, containing 50 mM HEPES, pH 7.5, 0.05% BSA, 5 mM MgCl2, 100 μM ATP, 10 nM Ubc12-GST, 75 nM NEDD8-Flag and 0.5 nM recombinant human NAE enzyme. The reaction mixture is incubated with and without compound inhibitor at 24° C. for 30 min in a 96 half-well plate. The reaction is then terminated with 25 μL of stop/detection buffer (0.1 M HEPES, pH 7.5, 0.05% Tween20, 20 mM EDTA, 410 mM KF, 81.8 ng/mL Europium-Cryptate-labelled monoclonal Flag-M2-specific antibody (CisBio International) and 8.125 μg/mL PHYCOLINK allophycocyanin (XL-APC)-labelled GST-specific antibody (Prozyme)). After incubation for 2 hours at 24° C., the plate is read on a Tecan Infinite M1000 instrument using a time-resolved fluorescence method. A similar assay protocol is used to measure other E1 enzymes. For the Sumo Activating Enzyme (SAE) assay everything is conducted as described for NAE except that Ubc12-GST and NEDD8-Flag are replaced with 10 nM Ubc9-GST and 125 nM Sumo-Flag respectively, and recombinant human SAE (0.6 nM) replaced NAE. The Ubiquitin Activating Enzyme (UAE) assay is performed as described for NAE except Ubc12-GST, NEDD8-Flag, and NAE are replaced with 5 nM Ubc2-GST, 125 nM UBB-Flag, and 1.5 nM UAE respectively.
Compounds of the disclosure are inhibitors of NAE. Several exemplary compounds useful in the methods of the disclosure are listed below.

In the case of `COCCNc1ncnc2c([C@@H]3O[C@H](COS(N)(=O)=O)[C@@H](O)[C@H]3O)csc12` [Compound 28, (3,4-dihydroxy-5-(4-(2-methoxyethylamino)thieno[3,2-d]pyrimidin-7-yl)tetrahydrofuran-2-yl)methyl sulfamate], in experiment [1], the IC50 is 5 to 50 µM. On to `Nc1ncnc2c([C@@H]3O[C@H](COS(N)(=O)=O)[C@@H](O)[C@H]3O)[nH]nc12` [Compound 3, [(2R,3S,4R,5S)-5-(7-amino-1H-pyrazolo[4,3-d]pyrimidin-3-yl)-3,4-dihydroxy-tetrahydrofuran-2-yl]methyl sulfamate], for which the IC50 in experiment [1] and in experiment [2] was 0.5 to 5 µM in each case. For `NS(=O)(=O)OC[C@H]1O[C@@H](c2ccc3c(N[C@H]4CCc5ccccc54)ncnn23)CC1=O` [Compound 1, [(2R,5R)-5-[4-[[(1S)-indan-1-yl]amino]pyrrolo[2,1-f][1,2,4]triazin-7-yl]-3-oxo-tetrahydrofuran-2-yl]methyl sulfamate], the IC50 in experiment [1] and in experiment [2] was 5 to 50 µM throughout. As to `NS(=O)(=O)OC[C@H]1O[C@@H](c2coc3c(NCc4ccc(Cl)cc4Cl)ncnc23)[C@H](O)[C@@H]1O` [Compound 34, (5-(4-(2,4-dichlorobenzylamino)furo[3,2-d]pyrimidin-7-yl)-3,4-dihydroxytetrahydrofuran-2-yl)methyl sulfamate], the IC50 in experiment [1] is 5 to 50 µM. On to `NS(=O)(=O)OC[C@H]1O[C@@H](c2csc3c(NCc4ccccc4)ncnc23)[C@H](O)[C@@H]1O` [Compound 25, (5-(4-(benzylamino)thieno[3,2-d]pyrimidin-7-yl)-3,4-dihydroxytetrahydrofuran-2-yl)methyl sulfamate], for which the IC50 in experiment [1] is 0.5 to 5 µM. On the same count and under the same terms, under `NS(=O)(=O)OC[C@H]1O[C@@H](c2csc3c(NCC4CC4)ncnc23)[C@H](O)[C@@H]1O` [Compound 26, (5-(4-(cyclopropylmethylamino)thieno[3,2-d]pyrimidin-7-yl)-3,4-dihydroxytetrahydrofuran-2-yl)methyl sulfamate] stands 5 to 50 µM. Consider `Nc1ncnc2c([C@@H]3O[C@H](COS(N)(=O)=O)[C@@H](O)[C@H]3O)coc12` [Compound 11, ((2R,3S,4R,5S)-5-(4-aminofuro[3,2-d]pyrimidin-7-yl)-3,4-dihydroxytetrahydrofuran-2-yl)methyl sulfamate], for which the IC50 in experiment [1] was less than 0.5 µM; in experiment [2], 0.5 to 5 µM. Consider `Nc1ncnc2c([C@@H]3O[C@H](COS(N)(=O)=O)[C@@H](O)[C@H]3O)csc12` [Compound 4, [(2R,3S,4R,5S)-5-(4-aminothieno[3,2-d]pyrimidin-7-yl)-3,4-dihydroxy-tetrahydrofuran-2-yl]methyl sulfamate], for which the IC50 in experiment [1] and in experiment [2] was less than 0.5 µM throughout. For `NS(=O)(=O)OC[C@H]1O[C@@H](c2csc3c(N[C@H]4CCc5ccccc54)ncnc23)C[C@@H]1O` [Compound 10, ((2R,3S,5R)-5-(4-((S)-2,3-dihydro-1H-inden-1-ylamino)thieno[3,2-d]pyrimidin-7-yl)-3-hydroxytetrahydrofuran-2-yl)methyl sulfamate], the IC50 in experiment [1] and in experiment [2] was 0.5 to 5 µM in each case.

Consider `NS(=O)(=O)OC[C@H]1O[C@@H](c2csc3c(NCc4cccc(Cl)c4)ncnc23)[C@H](O)[C@@H]1O` [Compound 37, (5-(4-(3-chlorobenzylamino)thieno[3,2-d]pyrimidin-7-yl)-3,4-dihydroxytetrahydrofuran-2-yl)methyl sulfamate], for which the IC50 in experiment [2] lay in the range of 0.5 to 5 µM. As to `Nc1ncnc2c([C@@H]3O[C@H](COS(N)(=O)=O)[C@@H](O)[C@H]3O)cnn12` [Compound 13, ((2R,3S,4R,5S)-5-(4-aminopyrazolo[1,5-a][1,3,5]triazin-8-yl)-3,4-dihydroxytetrahydrofuran-2-yl)methyl sulfamate], the IC50 in experiment [1] was 5 to 50 µM. On to `NS(=O)(=O)OC[C@H]1O[C@@H](c2csc3c(NCc4ccccc4Cl)ncnc23)[C@H](O)[C@@H]1O` [Compound 30, (5-(4-(2-chlorobenzylamino)thieno[3,2-d]pyrimidin-7-yl)-3,4-dihydroxytetrahydrofuran-2-yl)methyl sulfamate], for which the IC50 in experiment [2] fell in the range of 0.5 to 5 µM. The same measure, in the same setting: under `NS(=O)(=O)OC[C@H]1O[C@@H](c2coc3c(NCc4ccc(Cl)c(C(F)(F)F)c4)ncnc23)[C@H](O)[C@@H]1O` [Compound 35, (5-(4-(4-chloro-3-(trifluoromethyl)benzylamino)furo[3,2-d]pyrimidin-7-yl)-3,4-dihydroxytetrahydrofuran-2-yl)methyl sulfamate] stands 0.5 to 5 µM. As to `NS(=O)(=O)OC[C@H]1C[C@H](c2ccc3c(N[C@H]4CCc5ccccc54)ncnn23)C[C@@H]1OS(N)(=O)=O` [Compound 19, [2-[(aminosulfonyl)oxy]-4-{4-[2,3-dihydro-1H-inden-1-ylamino]pyrrolo[2,1-f][1,2,4]triazin-7-yl}cyclopentyl]methyl sulfamate], the IC50 in experiment [1] and in experiment [2] was 5 to 50 µM in each case.

As for `NS(=O)(=O)OC[C@H]1O[C@@H](c2csc3c(NCc4ccc(Cl)cc4)ncnc23)[C@H](O)[C@@H]1O` [Compound 6, ((2R,3S,4R,5S)-5-(4-(4-chlorobenzylamino)thieno[3,2-d]pyrimidin-7-yl)-3,4-dihydroxytetrahydrofuran-2-yl)methyl sulfamate], the IC50 is 0.5 to 5 µM in experiment [1] and less than 0.5 µM in experiment [2].
